According to paper PMC12040169 (PLOS Biology, 2025):

Assay: in vitro
Settings: human, hela cells, % viability

| SMILES | viability at 28.5 h, 10 µM [%] |
| --- | --- |
| Cc1nnnn1-c1cc(NC(=O)N(C)C(C)C)ccc1F [CBK304708] | 93.2 |
| Cc1nc(CN2CCN(c3cccc(C(F)(F)F)n3)CC2)cs1 [CBK304709] | 93.9 |
| CC(C)(C)OC(=O)N1CCCCC1(C)c1nnc(-c2cccnc2)o1 (stereo not shown) [CBK304714] | 90.2 |
| CC(Cc1nc(C2(Cl)CC2)cs1)n1cc(Cl)cn1 (stereo not shown) [CBK304715] | 85.5 |
| COCc1nc2n(n1)CC(NC(C)C(C)OCc1ccccc1)CC2 (stereo not shown) [CBK304724] | 95.8 |
| CCc1ccc2c(c1)C(CCNC(=O)c1ncoc1C(F)(F)F)C(=O)N2 (stereo not shown) [CBK304725] | 99.4 |
| Cc1nn(C)c(S(=O)(=O)N2CCOCC2c2cccc(F)c2)c1C(F)F (stereo not shown) [CBK304729] | 86.3 |
| CCc1ccc(C(O)CNC2CCN(Cc3cscn3)CC2)cc1 (stereo not shown) [CBK304733] | 108 |
| Cc1c(NC2CCN(c3ccc(C#N)cc3)C2=O)cnn1C1CCCC1 (stereo not shown) [CBK304735] | 113 |
| CCC(NC1CCc2nc(COC)nn2C1)C1CCC1 (stereo not shown) [CBK304739] | 87.8 |
| Cc1ccc2[nH]c(CNC(=O)c3cn[nH]c3C3CCCCN3)nc2c1 (stereo not shown) [CBK304741] | 100 |
| CN(Cc1ccc(Cl)c(F)c1)C(=O)c1cn[nH]c1C1CCCCN1 (stereo not shown) [CBK304742] | 103 |
| NC(=O)c1cn[nH]c1C1CCCCN1Cc1cccc2c1CCOC2 (stereo not shown) [CBK304745] | 83.1 |
| N#Cc1cc(Cl)ccc1CN1CCCCC1c1[nH]ncc1C(N)=O (stereo not shown) [CBK304746] | 88.5 |
| Cc1noc(C2(O)CCN(Cc3cccc(Cl)c3F)C2)n1 (stereo not shown) [CBK304748] | 99.3 |
| CCn1nncc1CNC1CCc2[nH]c3ccc(C)cc3c2C1 (stereo not shown) [CBK304749] | 98.3 |
| CCOc1cccc(CN2CCCCC2c2[nH]ncc2C(N)=O)n1 (stereo not shown) [CBK304750] | 98.9 |
| CC(C)OCC1CN(c2cc(CO)c(F)cn2)CCO1 (stereo not shown) [CBK304755] | 89.7 |
| Cn1nnc2cc(NCC34CC3CN(C(=O)OC(C)(C)C)C4)ccc21 (stereo not shown) [CBK304758] | 92.7 |
| CCOC(=O)C1CSCN1C(=O)c1cnn(C(CC)CC)c1C (stereo not shown) [CBK304759] | 106 |
| O=C(CC1CCCO1)N1CCn2c(nnc2-c2cncc(Br)c2)C1 (stereo not shown) [CBK304762] | 91.4 |
| CCOCCCC(=O)N1CCn2c(nnc2-c2cncc(Br)c2)C1 [CBK304764] | 91.5 |
| CNS(=O)(=O)c1ccc(C(C)NC(=O)N2CCN3CCC2CC3)cc1 (stereo not shown) [CBK304765] | 92.2 |
| N#Cc1ccc(CN2CCC(NC3CCCn4nccc43)C2=O)cc1 (stereo not shown) [CBK304770] | 97.8 |
| Cc1conc1C(=O)N1CCCCC1CN1CCOCC1 (stereo not shown) [CBK304771] | 92.7 |

| SMILES | viability at 28.5 h, 10 µM [%] |
| --- | --- |
| CC1CN(c2cc(CO)c(F)cn2)CC2(CCOCC2)O1 (stereo not shown) [CBK304773] | 91.9 |
| CC1OCCC12CN(c1cc(CO)c(F)cn1)CCO2 (stereo not shown) [CBK304775] | 102 |
| Cn1ncc2ccc(-c3nnn[nH]3)cc21 [CBK304776] | 93 |
| Cc1cc(N2CCN(C(=O)CCc3nccs3)CC2)nc(C(C)C)n1 [CBK304778] | 98.8 |
| Cc1nc(C(C)NC(=O)c2cc(C3CC3)nc3c2c(C)nn3C)cs1 (stereo not shown) [CBK304779] | 93.7 |
| COCC(=O)N(C)C(CO)c1cc(OC)ccc1Br (stereo not shown) [CBK304780] | 88.7 |
| Cn1c(CN2CCN(c3ccc(C#N)cn3)CC2)nnc1C1CC1 [CBK304781] | 92.5 |
| CC(CN(C)C(=O)c1cn[nH]c1C1CCNC1)Oc1ccc(Cl)c(Cl)c1 (stereo not shown) [CBK304786] | 91.1 |
| Cc1nc(C)n(CC2CCCN(Cc3cc(C#N)cs3)C2)n1 (stereo not shown) [CBK304787] | 92 |
| CCn1c(=O)n(CC2(O)CCCOC2)c2cc(S(=O)(=O)N(C)C)ccc21 (stereo not shown) [CBK304788] | 90.6 |
| CN(C)c1ncccc1OC1CCN(c2nnc(C(F)(F)F)s2)C1 (stereo not shown) [CBK304789] | 97.1 |
| CCn1cc(S(=O)(=O)NC2CCc3[nH]c4ccc(C)cc4c3C2)cn1 (stereo not shown) [CBK304790] | 99.7 |
| Fc1cc(Br)c(CNCc2cocn2)c(N2CCCCC2)c1F [CBK304792] | 86.8 |
| CCc1csc(C2CN3CCCC3CO2)n1 (stereo not shown) [CBK304793] | 89.4 |
| COCCNS(=O)(=O)c1ccc(Br)c(C(=O)N(C)Cc2cnn(C)c2)c1 [CBK304795] | 96.6 |
| CCN(CC(C)C#N)C(=O)c1ccc2ccccc2n1 (stereo not shown) [CBK304801] | 96.6 |
| CCCOC1CCCN(C(=O)c2cc(Cl)c[nH]2)C1 (stereo not shown) [CBK304802] | 97.5 |
| CCC(CNC(=O)c1cccc(C)n1)N1CCCC1 (stereo not shown) [CBK304803] | 116 |
| Cc1csc(CNCc2c(C)nn(C)c2N(C)C)n1 [CBK304804] | 103 |
| CCC(C)c1csc(C2CN3CCCC3CO2)n1 (stereo not shown) [CBK304805] | 81.5 |
| CC(C)Cc1csc(C2CN3CCCC3CO2)n1 (stereo not shown) [CBK304807] | 83.9 |
| Cc1nc(CNCc2c(C)nn(C)c2N(C)C)cs1 [CBK304808] | 95.3 |
| CCN1CCOC(CNc2ncnc3c2CCC3)C1 (stereo not shown) [CBK304811] | 106 |
| c1ccc(C(NCc2cncs2)C2CCCC2)cc1 (stereo not shown) [CBK304812] | 82.6 |
| c1sc(C2CN3CCCC3CO2)nc1C1CCCC1 (stereo not shown) [CBK304814] | 90.4 |

| SMILES | viability at 28.5 h, 10 µM [%] |
| --- | --- |
| COc1ccnc(N2CCc3c(ncn3C3CC3)C2)n1 [CBK304816] | 95.7 |
| COCCNC(=O)N1CCN(Cc2ccccn2)CC1 [CBK304817] | 110 |
| COCC1CCCN(Cc2cn(C)nc2C(C)(C)C)C1 (stereo not shown) [CBK304818] | 108 |
| Cc1occc1-c1nnc(NCc2cnn(C)c2C)o1 [CBK304819] | 92.3 |
| CC(C)C(CNCc1ccsc1)c1ccnn1C (stereo not shown) [CBK304821] | 93.9 |
| CC(C)C(CNCc1ccn(C)c1)c1ccnn1C (stereo not shown) [CBK304822] | 91 |
| CCSC1CCC(N(C)CC(=O)NCc2ccco2)C1 (stereo not shown) [CBK304823] | 84.3 |
| CCC(=O)N(C)C1CCN(c2ncnc3ccccc23)CC1 [CBK304829] | 91.8 |
| CN1CCOC(CNCc2ccc(OCC(N)=O)cc2)C1 (stereo not shown) [CBK304830] | 102 |
| Cc1cc(C)n(CC(C)CNC(=O)CCCN(C)C)n1 (stereo not shown) [CBK304831] | 93 |
| CCOC(=O)C1(O)CCN(c2ccc(C#N)cc2F)CC1 [CBK304836] | 94 |
| CCCCn1nccc1NC(=O)NC(C)c1ccncc1 (stereo not shown) [CBK304840] | 99.2 |
| CCCc1n[nH]c(C2CN(CCn3cccn3)CCO2)n1 (stereo not shown) [CBK304842] | 106 |
| Cc1noc(C)c1CN1CC2CCN(c3ccccc3)C2C1 (stereo not shown) [CBK304847] | 99.7 |
| CCOC(=O)C1CCCN(Cc2nnsc2Cl)C1 (stereo not shown) [CBK304848] | 95.7 |
| Cn1cc(C2CCCN2C(=O)c2cccc(C#N)c2)cn1 (stereo not shown) [CBK304849] | 98 |
| COCCOC1CN(Cc2cn(-c3ccc(Br)cc3)nc2C(C)C)C1 [CBK304852] | 87.7 |
| CC1CCC(C(N)=O)CN1c1cc(Br)ccn1 (stereo not shown) [CBK304856] | 94.9 |
| CN(Cc1ccco1)C(=O)c1cccc(NC(=O)C2CC2)c1 [CBK304857] | 101 |
| COc1cccc(CNCC(c2ccnn2C)C(C)C)n1 (stereo not shown) [CBK304858] | 105 |
| COc1cccc(CC(=O)N(CCC#N)Cc2ccco2)c1 [CBK304859] | 92.5 |
| O=C(Nc1cccc(F)c1)N(CCO)Cc1cccnc1 [CBK304860] | 104 |
| CCCn1ccc(CNCC(c2ccnn2C)C(C)C)c1 (stereo not shown) [CBK304861] | 87 |
| COc1ccc(C(=O)N(CCC#N)Cc2ccco2)cc1 [CBK304862] | 93.5 |
| CCCn1cc(NC(=O)NC(C)(CC)CO)ccc1=O (stereo not shown) [CBK304864] | 88.7 |

| SMILES | viability at 28.5 h, 10 µM [%] |
| --- | --- |
| O=C(c1ccc2[nH]ccc2c1)N1CCN(CC2CCOC2)CC1 (stereo not shown) [CBK304866] | 111 |
| CN(C)C(=O)c1cccc(S(=O)(=O)NCC2CCCO2)c1 (stereo not shown) [CBK304867] | 93.2 |
| COC(=O)c1cccc2c1CCCN2Cc1nnc(C2CC2)o1 [CBK304868] | 90.2 |
| CC(Sc1nncs1)C(=O)N1CCCc2ccccc21 (stereo not shown) [CBK304871] | 94.6 |
| Cc1ccccc1OCC(O)CN1CCCC(C(F)(F)F)C1 (stereo not shown) [CBK304873] | 103 |
| CC(=O)Nc1cccc(NCc2csc(C3CCCC3)n2)c1 [CBK304874] | 110 |
| COc1ccc(CNC2CCCc3c2cnn3C)c(OC)c1 (stereo not shown) [CBK304875] | 103 |
| COC(=O)c1cccn2cc(CN3CCOCC3(C)C)nc12 [CBK304879] | 93.8 |
| CCN(Cc1cn2cccc(C(=O)OC)c2n1)CC1CCOC1 (stereo not shown) [CBK304880] | 96.6 |
| COC1CCN(C2CCc3c(Cl)cc(Cl)cc32)CC1 (stereo not shown) [CBK304883] | 90.6 |
| COCCNC(=O)c1nn(-c2cccc(C(C)C)c2)cc1O [CBK304884] | 90.8 |
| Cc1ccc(S(=O)(=O)N(CCO)CC2CC2)c(Cl)c1 [CBK304885] | 75 |
| COCCOCCCC(=O)OCC1Cc2cc(F)ccc2O1 (stereo not shown) [CBK304886] | 91.2 |
| Cc1cccc(OCC(C)NC(=O)NCCc2cnn(C)c2)c1 (stereo not shown) [CBK304887] | 98.5 |
| CS(=O)(=O)NC1CCCN(Cc2nc(N)c3ccccc3n2)C1 (stereo not shown) [CBK304889] | 93.8 |
| CC(C)Cn1ncc2cc(C(=O)Nc3cccnc3N(C)C)cnc21 [CBK304891] | 87.1 |
| CCn1c(=O)n(CC(C)(C)O)c2cc(S(=O)(=O)N(C)C)ccc21 [CBK304893] | 92.8 |
| COc1ccnc(N2CCN(C(=O)c3cncnc3C)CC2)n1 [CBK304894] | 104 |
| Cc1nc2ccccc2c(C)c1CC(=O)N(C)Cc1cnn(C)c1 [CBK304895] | 96.1 |
| CC(=O)N1CCN(CCNc2ncnc3sc4c(c23)CCC(C)C4)CC1 (stereo not shown) [CBK304897] | 93 |
| COc1ccnc(N2CCN(C(=O)c3cnn(C)c3C3CC3)CC2)n1 [CBK304900] | 85.3 |
| COC(=O)c1ccc(N2CCN(Cc3nc(C)c(C)o3)C(C)C2)cc1 (stereo not shown) [CBK304903] | 105 |
